Measured values: patent publication US9193699B2, “Apoptosis inducing compounds” (INSTITUT NATIONAL DE LA SANTE ET DE LA RECHERCHE MEDICALE …, priority 2011, dated 2015)

What was measured:
[1] = system: Human breast tumor L226 cells; assay: Inhibition of tumor cell growth (alamar blue), L226; type: cell-based; details: 120 h, calculated on the basis of cell growth inhibition, day 5, alamar blue
Experimental: (§1) All biological experiments (Examples 2 to 9) have been performed with recommended cell line specific culture medium. For SUM149 and L226, culture medium is supplemented with 10% Fetal Calf Serum. For HME-1 and MCF-10A, culture medium is supplemented with 5% Horse Serum.
(§2) Human breast tumor L226 cells (Inflammatory Breast Cancer (IBC) of ERB-B2 subtype) were plated in a 96 well plate at 3000 cells/100 μL at 37° C. in 5% CO2. Serial dilutions of drugs (compounds 1, 3 or 4) ranging from 20 μM to 300 nM were added at day 0 and day 3. The number of viable cells was determined in triplicate at day 5 by incubating 10 μL of the alamar blue staining solution for 2 hours at 37° C. (FIG. 3).
IC50 values of compounds 1-14 for the inhibition of SUM149 and L226 tumor cells growth were measured (according to the experimental procedure of Examples 2 and 3): […]

[2] = system: Human normal mammary epithelial MCF-10A cells; assay: Effect on growth of normal cells (alamar blue), MCF-10A; type: cell-based; details: calculated on the basis of cell growth inhibition
Experimental: as §1
as §2, with “normal mammary epithelial MCF-10A” for “breast tumor L226”, “cells” for “cells (Inflammatory Breast Cancer (IBC) of ERB-B2 subtype)”, “5).” for “3).”
(§3) IC50 values of compounds 1-14 for the inhibition of MCF-10A and HME-1 normal cells growth were also measured (according to the experimental procedure of Examples 4 and 5): […]

[3] = system: Human normal mammary epithelial HME-1 cells; assay: Effect on growth of normal cells (alamar blue), HME-1; type: cell-based; details: HME1, calculated on the basis of cell growth inhibition
Experimental: as §1
as §2, with “normal mammary epithelial HME-1” for “breast tumor L226”, “cells” for “cells (Inflammatory Breast Cancer (IBC) of ERB-B2 subtype)”, “4).” for “3).”
as §3

[4] = system: caspase-3 and caspase-7 in SUM149 cells; assay: Caspase 3/7 activation (Caspase-Glo 3/7) in SUM149 tumor cells; type: cell-based; details: Homo sapiens, R=RLU at 20 μM/RLU at 0 μM, 24 h, read-out: Caspase 3/7 activation R (RLU fold increase from untreated cells)
Experimental: (§4) Human breast tumor SUM149 cells were plated in a 96 well plate at 10000 cells/100 μL at 37° C. in 5% CO2. Serial dilutions of drugs (compounds 1, 3 or 4) ranging from 20 μM to 300 nM were added at day 0. Active caspase-3 and caspase-7 were measured in triplicate after 24 h treatment by incubating 50 μL of the Caspase-Glo 3/7 reagent for 60 min at 25° C. This reagent containing the proluminescent tetrapeptide sequence DEVD in a cell lysis buffer (Promega) (FIG. 6).
(§5) Caspase 3/7 activation in SUM149 and L226 tumor cells was measured.
(§6) The calculated values R correspond to Relative Luminescence Units (RLU) fold increase from untreated cells (R=RLU at 20 μM/RLU at 0 μM).

[5] = system: caspase-3 and caspase-7 in L226 cells; assay: Caspase 3/7 activation (Caspase-Glo 3/7) in L226 tumor cells; type: cell-based; details: Homo sapiens, R=RLU at 20 μM/RLU at 0 μM, 24 h, read-out: Caspase 3/7 activation R (RLU fold increase from untreated cells)
Experimental: as §4, with “L226” for “SUM149”, “7).” for “6).”
as §5, §6

[6] = system: caspase-3 and caspase-7 in MCF-10A cells; assay: Caspase 3/7 activation (Caspase-Glo 3/7) in MCF-10A normal cells; type: cell-based; details: Homo sapiens, R=RLU at 20 μM/RLU at 0 μM, 24 h, read-out: Caspase 3/7 activation R (RLU fold increase from untreated cells)
Experimental: as §4, with “normal mammary epithelial MCF-10A” for “breast tumor SUM149”, “9).” for “6).”
as §6
(§7) Caspase 3/7 activation in MCF-10A and HME-1 normal cells was also measured.

[7] = system: caspase-3 and caspase-7 in HME-1 cells; assay: Caspase 3/7 activation (Caspase-Glo 3/7) in HME-1 normal cells; type: cell-based; details: Homo sapiens, HME1, R=RLU at 20 μM/RLU at 0 μM, 24 h, read-out: Caspase 3/7 activation R (RLU fold increase from untreated cells)
Experimental: as §4, with “normal mammary epithelial HME-1” for “breast tumor SUM149”, “8).” for “6).”
as §6, §7

[8] = system: tumors derived from MMTC-ErbB2/neu mice; assay: TUNEL assay of tumor apoptosis in MMTV-ErB2/Neu mice; type: in vivo; details: 100 mg/kg for 30 days
Experimental: DNA fragmentation in apoptotic cells was analyzed by the TUNEL assay (ApopTag detection kit, Millipore) as recommended by the manufacturer.
Briefly, 4 μm sections of paraffin-embedded fixed tissue from tumors derived from MMTC-ErbB2/neu mice treated with vehicle or with Compound 12, 4 or 8 (100 mg/kg) for 30 days, were deparaffined with successive histolemon and ethanol washes, then treated with 20 μg/mL proteinase K for 15 min at room temperature. Endogenous peroxidise was quenched with 3% hydrogen peroxide. […] Coloration was performed using the diaminobenzidine mixed substrate (Dako). Counterstaining was done with a solution of 1% methyl green for 5 min at room temperature. After distilled water and N-butanol washes, specimens were mounted in Pertex medium (CellPath). Observations were made using the Leica DMD108 digital microimaging device (Leica Microsystems GmbH).

| IC50 [1] [µM] | SMILES | IC50 [2] [µM] | IC50 [3] [µM] | fold induction at 20 µM [4] | fold induction at 20 µM [5] | fold induction at 20 µM [6] | fold induction at 20 µM [7] | percentage of cells having TdT positive nuclei in tumors [8] [%] |
| --- | --- | --- | --- | --- | --- | --- | --- | --- |
| 2 | Cc1c(C)c(C)c(S(=O)(=O)N2CCSC(C)(C)[C@@H]2C(=O)NO)c(C)c1C [Compound 12, (3S)—N-hydroxy-4-[(2,3,4,5,6-pentamethylphenyl)sulfonyl]-2,2-dimethyl-3-thiomorpholine carboxamide] | 15 | > 20 | 6.8 | 6.2 | 1.1 | 1.2 | 70 |
| 2.5 | Cc1cc(C)c(C)c(S(=O)(=O)N2CCSC(C)(C)[C@@H]2C(=O)NO)c1C [Compound 4, (3S)—N-hydroxy-4-[(2,3,5,6-tetramethylphenyl)sulfonyl]-2,2-dimethyl-3-thiomorpholine carboxamide] | 20 | > 20 | 4.4 | 7.4 | 1 | 1 | 50 |
